Assays:
CaBP22 transcript levels = assay: RT-PCR analysis of CaBP22 transcript levels in Col-0 and defense mutants; assay type: in vivo, Arabidopsis thaliana
Protocol: FIG. 4. Analysis of HTC activity in defense mutant plants. A & B. RT-PCR analysis of CaBP22 transcript levels in Col-0 (wild-type) and mutant backgrounds 24 h after spraying 2-week-old seedlings with mock-solution (1% DMSO), 100 μM DCA, or HTC. RT-PCRs with ACTIN are shown as loading controls. […] C. Analysis of HTC activity in Col-0 or nahG background. Experiments were conducted with three-week-old soil-grown Col-0 or nahG seedlings sprayed with 100 μM HTC, 100 μM DCA, or mock-solution (1% DMSO) 24 h prior to infection with 2×10^4 virulent Noco2 spores ml^−1 (2 ml per pot). Spores were counted at 7 dpi. Mean and SE values were calculated from a minimum of three biological replicates and their averages of are shown.
To establish the mode-of-action of HTC, we performed reverse transcription (RT)-PCRs examining transcript levels of the defense marker gene CaBP22 in Col-0 and a set of mutant lines representing various defense signaling mechanisms. […] In the transgenic nahG line, which is compromised in the accumulation of salicylic acid (SA), the ability of HTC to induce CaBP22 expression was blocked, while that of DCA was not affected (FIGS. 4A and B).

Col-0 seedlings = assay: Trypan blue staining for phytotoxicity (cell death) after saturation treatment; assay type: in vivo, Arabidopsis thaliana
Protocol: B. Trypan blue staining of CaBP22^−333 : :GUS seedlings incubated for 24 h in medium containing compounds at the indicated concentrations.
To quantify the bioactivity of HTC, we performed various assays with one week-old CaBP22^−333::GUS seedlings submerged in liquid growth medium containing HTC or mock-solution (saturation treatment). […] To examine if HTC induces phytotoxicity, we stained Col-0 seedlings after saturation treatment with trypan blue.
To determine which substituents or moieties of the HTC molecule are critical for its defense-inducing activity, seven commercially available HTC analogs were analyzed (FIG. 3A). We compared the ability of these compounds to induce GUS expression in saturation treated CaBP22^−333::GUS Arabidopsis seedlings to that of DCA and HTC. […] We also used trypan blue staining to examine HTC-analog-induced phytotoxicity.

[1] = tested on: Tomato cv. Moneymaker seedlings; assay: Root drench assay, aerial fresh weight of soil-grown tomato; assay type: in vivo, Solanum lycopersicum; conditions: 10 μM single soil drench, day 14
Protocol: (§1) FIG. 7. Relative root length and FW of tomato seedlings and shoots. Tomato cv. Moneymaker seedlings treated with HTC compared to seedlings treated with control (DMSO 0.01%). A. Moneymaker seedlings were plated in square petri dishes on ½ MS medium containing HTC. Root length was measured at day 2, 4, 6, and 8. Results are expressed as percentages of the average root length on 1 μM HTC or control. The average, standard error, and Student's t-test (p<0.05) were calculated from these values. Each time point represents at least 89 distinct root length measurements from at least three biological replicates. Y-axis represents percent of root growth in the presence of synthetic elicitor compared to controls. B. Moneymaker seeds (five seeds per pot with a minimum of 21 pots) were sown on soil drenched with 20 ml of the indicated concentrations of HTC or their respective control. Fresh weight (FW) of the above-ground plant tissues was measured at day 14. Results are expressed as percentages of the average weight of HTC treatments compared to those of the controls. The standard error and Student's t-test (p<0.01) were calculated from at least three biological replicates and the average is shown above. Significant differences between synthetic elicitor-treated and control-treated plants are marked by stars above the corresponding data points. […]

[2] = tested on: Tomato cv. Moneymaker seedlings; assay: Root length of plate-grown tomato seedlings; assay type: in vivo, Solanum lycopersicum; conditions: 1 μM
Protocol: as §1

O=C(O)C1CSC(c2cc(Br)ccc2O)N1 (centres unmarked) [HTC, 2-(5-bromo-2-hydroxy-phenyl)-thiazolidine-4-carboxylic acid]
CaBP22 transcript levels (CaBP22 transcript levels; Col-0, 24 h after spraying 100 μM): induced an increase
CaBP22 transcript accumulation (CaBP22 transcript levels; pad4-1 mutant, 100 μM): reduced
CaBP22 transcript accumulation (CaBP22 transcript levels; sid2-2 mutant, 100 μM): reduced
ability to induce CaBP22 expression (CaBP22 transcript levels; transgenic nahG line, 100 μM): blocked
CaBP22 transcript levels (CaBP22 transcript levels; wrky70-3 mutant, 24 h after spraying 100 μM): not
CaBP22 transcript accumulation (CaBP22 transcript levels; wrky72-2 mutant, 100 μM): full HTC-induced CaBP22 transcript accumulation
cell death (trypan blue staining) (Col-0 seedlings; lower concentrations that resulted in reporter activation (1-100 μM)): No cell death
seedlings with cell death (trypan blue staining) (Col-0 seedlings; treated for 24 h at 300 μM): 100%
fresh weight of shoots relative to mock-treated plants [1]: 128.5%
change in root length ([2]; all analyzed time-points): significant increase in root length
root length relative to mock-treated plants ([2]; day 6): 136.1%
